In patent EP2444396A1, “PHOTOPROTECTIVE COMPOSITION” (Apoteknos Para La Piel, S.L., priority 2009, dated 2010):

How the values were obtained:
ERα = molecular target: T1, ERα (Homo sapiens, UniProt P03372); experiment: Estrogenicity reporter gene bioassay (luciferase activity) in HELN-ERα cells; format: cell-based
T1 construct: expressed in transfected cells; host or cells: HeLa (HELN-ERα)
T1 sequence (P03372 1-595): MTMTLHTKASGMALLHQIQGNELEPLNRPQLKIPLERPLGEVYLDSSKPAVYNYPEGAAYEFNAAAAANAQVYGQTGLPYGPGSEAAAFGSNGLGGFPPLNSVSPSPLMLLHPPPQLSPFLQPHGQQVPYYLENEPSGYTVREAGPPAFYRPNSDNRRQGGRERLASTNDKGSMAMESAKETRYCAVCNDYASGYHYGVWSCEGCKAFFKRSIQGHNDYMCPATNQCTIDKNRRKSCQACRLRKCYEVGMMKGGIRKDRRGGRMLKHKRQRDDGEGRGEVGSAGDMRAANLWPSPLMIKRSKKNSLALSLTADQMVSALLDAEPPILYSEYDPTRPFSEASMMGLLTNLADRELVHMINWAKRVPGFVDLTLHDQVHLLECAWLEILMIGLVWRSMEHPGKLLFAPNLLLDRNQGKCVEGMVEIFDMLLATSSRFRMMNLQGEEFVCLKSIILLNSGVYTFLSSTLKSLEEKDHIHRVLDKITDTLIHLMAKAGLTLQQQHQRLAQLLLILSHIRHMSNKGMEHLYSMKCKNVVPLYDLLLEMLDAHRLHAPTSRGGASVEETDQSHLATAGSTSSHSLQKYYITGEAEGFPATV
Excerpt: (§1) Briefly, the transactivation bioassay (Reporter gene assay) used are based on the use of breast and uterine cancer cell lines transfected with different native or modified hormone receptors. The resulting cell lines further contain a reporter gene regulated by estrogens through the estrogen response element, the globin promoter and the luciferase gene.
(§2) HELN-ERα and HELN-ERβ cell lines were obtained by means of transfecting the HeLa uterine cancer cell line. In a first phase, said cells were transfected with an estrogen sensitive response element and then with the estrogen receptor alpha or beta (ERα or ERβ). The selection of clones resistant to geneticin and puromycin was performed using a concentration of 1 mg/mL and 0.5 mg/mL, respectively. The maintenance medium as well as the experimental medium of these 2 cell lines is DMEM F12 without phenol red supplemented with 6% of FBS (lacking of estrogens), 1% of penicillin / streptomycin, 1 mg/mL of geneticin and 0.5 µg/mL of puromycin.
(§3) The cells were seeded at a density of 5x10^4 cells per well in white opaque 96 well plates in 150 µL of experimental medium. After 8 hours, the compounds to be assayed (p-nitrolophine and estradiol) were prepared (concentrated 4x) in the same medium and were added to each well (50 µl). The cells were incubated for 16 hours at 37°C. At the end of the incubation, the medium was removed and replaced with fresh medium containing […] luciferin [at that concentration, luciferin diffuses into cell producing a luminescent signal which is stable after 5 minutes and for at least 2 hours]. The plates were then introduced in the luminometer to measure the luminescence for 2 seconds. A YicroBeta Trilux luminometer (EGG Wallac) apparatus was used to detect luciferase activity.
(§4) The assays were preformed in quadruple for each concentration (0.01-10 µM) in at least three independent experiments. […] The values of luciferase activity obtained were analyzed using the one-way ANOVA statistic test. The differences were considered significant when P was less than […] (P < 0.05).

ERβ = molecular target: T2, ERβ (Homo sapiens, UniProt Q92731); experiment: Estrogenicity reporter gene bioassay (luciferase activity) in HELN-ERβ cells; format: cell-based
T2 construct: expressed in transfected cells; host or cells: HeLa (HELN-ERβ)
T2 sequence (Q92731 whole entry, species assumed): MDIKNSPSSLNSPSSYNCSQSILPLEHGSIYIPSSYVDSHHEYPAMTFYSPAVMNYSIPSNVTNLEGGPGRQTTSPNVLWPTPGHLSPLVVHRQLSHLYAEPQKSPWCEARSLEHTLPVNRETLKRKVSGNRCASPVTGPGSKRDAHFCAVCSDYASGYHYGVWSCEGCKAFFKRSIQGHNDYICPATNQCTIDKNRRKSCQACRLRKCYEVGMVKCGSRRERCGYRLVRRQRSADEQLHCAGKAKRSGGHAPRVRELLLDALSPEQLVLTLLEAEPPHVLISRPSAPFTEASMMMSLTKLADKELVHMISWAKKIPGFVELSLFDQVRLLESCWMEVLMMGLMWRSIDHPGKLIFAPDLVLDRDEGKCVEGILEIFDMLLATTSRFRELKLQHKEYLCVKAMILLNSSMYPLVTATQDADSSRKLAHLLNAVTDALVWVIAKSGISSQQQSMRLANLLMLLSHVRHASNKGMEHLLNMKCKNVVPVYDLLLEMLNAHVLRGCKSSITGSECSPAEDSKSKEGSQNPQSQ
Excerpt: as §1, §2, §3, §4

O=[N+]([O-])c1ccc(-c2nc(-c3ccccc3)c(-c3ccccc3)[nH]2)cc1 [p-nitrolophine, 2-(4-nitrophenyl)-4,5-diphenyl-1H-imidazole]
activity at 0.01 µM (ERα): 11.1 ± 0.9%
activity at 0.03 µM (ERα): 11.7 ± 0.9%
activity at 0.1 µM (ERα): 10.7 ± 1.1%
activity at 0.3 µM (ERα): 11.3 ± 1.5%
activity at 1 µM (ERα): 11.1 ± 1.1%
activity at 3 µM (ERα): 11.2 ± 1.4%
activity at 10 µM (ERα): 11.6 ± 1.5%
estrogenicity (ERα; HELN-ERα line, conclusion in words): not estrogenic
activity at 0.01 µM (ERβ): 9.6 ± 1.4%
activity at 0.03 µM (ERβ): 10 ± 0.8%
activity at 0.1 µM (ERβ): 10.2 ± 1.3%
activity at 0.3 µM (ERβ): 10.3 ± 1.1%
activity at 1 µM (ERβ): 10.1 ± 1.3%
activity at 3 µM (ERβ): 10.2 ± 1.9%
activity at 10 µM (ERβ): 10.6 ± 1.2%
estrogenicity (ERβ; HELN-ERβ line, conclusion in words): not an estrogenic compound
